Reference: patent US20080312303A1, “Imidazole Derivatives and Their Use for Modulating the Gabaa Receptor Complex” (NeuroSearch A/S, priority 2005, published 2008)

biological target: benzodiazepine modulatory unit (GABAA receptor complex); assay: In vitro inhibition of 3H-flunitrazepam (3H-FNM) binding; parameters: species or system rat; settings: inhibition of specific binding of 3H-FNM (1 nM); cerebral cortex membranes from male Wistar rats; 40 min at 2° C.
Experimental: In vitro inhibition of ^3H-flunitrazepam (^3H-FNM) binding
The GABA recognition site and the benzodiazepine modulatory unit can selectively be labelled with ^3H-flunitrazepam.
Preparations are performed at 0-4° C. unless otherwise indicated. Cerebral cortex from male Wistar rats (150-200 g) is homogenised for 5-10 sec in 20 ml Tris-HCl (30 mM, pH 7.4) using an Ultra-Turrax homogeniser. The suspension is centrifuged at 27,000×g for 15 min and the pellet is washed three times with buffer (centrifuged at 27,000×g for 10 min). The washed pellet is homogenized in 20 ml of buffer and incubated on a water bath (37° C.) for 30 min to remove endogenous GABA and then centrifuged for 10 min at 27,000×g. The pellet is then homogenized in buffer and centrifuged for 10 min at 27,000×g. The final pellet is resuspended in 30 ml buffer and the preparation is frozen and stored at −20° C.
The membrane preparation is thawed and centrifuged at 2° C. for 10 min at 27,000×g. The pellet is washed twice with 20 ml 50 mM Tris-citrate, pH 7.1 using an Ultra-Turrax homogeniser and centrifuged for 10 min at 27,000×g. The final pellet is resuspended in 50 mM Tris-citrate, pH 7.1 (500 ml buffer per g of original tissue), and then used for binding assays. Aliquots of 0.5 ml tissue are added to 25 μl of test solution and 25 μl of ^3H-FNM (1 nM, final concentration), mixed and incubated for 40 min at 2° C. Non-specific binding is determined using Clonazepam (1 μM, final concentration). After incubation the samples are added 5 ml of ice-cold buffer and poured directly onto Whatman GF/C glass fibre filters under suction and immediately washed with 5 ml ice-cold buffer. The amount of radioactivity on the filters is determined by conventional liquid scintillation counting. Specific binding is total binding minus non-specific binding.
25-75% inhibition of specific binding must be obtained, before calculation of an IC50.
The test value will be given as IC50 (the concentration (μM) of the test substance which inhibits the specific binding of ^3H-FNM by 50%).

IC50 [µM]	SMILES
0.8	Nc1cccc(-c2cn(-c3cccc(-c4ccccc4)c3)cn2)c1 [1-Biphenyl-3-yl-4-(3-amino-phenyl)-1H-imidazole]
0.46	COc1ccc(-c2cn(-c3cccc(-c4ccccc4)c3)cn2)cc1 [1-Biphenyl-3-yl-4-(4-methoxy-phenyl)-1H-imidazole]
0.1	N#Cc1cccc(-n2cnc(-c3ccccc3)c2)c1 [3-(4-Phenyl-imidazol-1-yl)-benzonitrile]
